Measured values published in US12673038B2, “Antimycotic methoxyflavone and fluconazole combination for inhibiting cryptococcus” (Karl-Franzens-Universität Graz, priority 2019, dated 2026).
Values after ≈ are worked out from the molar mass of the structure shown.

Experiments:
[1] = tested on: Candida albicans; conditions: according to CN 105 669 625 A; cited from earlier work
[2] = tested on: C. albicans SC5314 biofilms; experiment: Biofilm inhibition concentration (BIC), CTB staining; assay type: cell-based; conditions: Candida albicans, C. albicans SC5314 biofilm formation, mean±SEM, read-out: BIC-50
[3] = tested on: S. cerevisiae; experiment: MIC determination, CLSI protocol M27-A3, OD490; assay type: cell-based; conditions: Saccharomyces cerevisiae; S. cerevisiae planktonic growth, 50% reduction vs control, mean±SEM
Procedure: S. cerevisiae BY4741 cells were grown in SMD minimal media to mid-log phase and then treated with the indicated concentrations of 5-MF; control cells were treated with the same amount of solvent (DMSO). (A) Clonogenicity was assayed by plating 500 cells on YPD agar plates and colony forming units (CFUs) were counted to calculate survival rates. (B) Yeast cells were analyzed for cell death markers via AnnV/PI co-staining using flow cytometry. (C) The accumulation of reactive oxygen species was monitored by dihydrotethidium (DHE) to ethidium (Eth) conversion using flow cytometry. Assays in (A-C) were performed on day 3 after treatment. […] Data was analyzed by one-way ANOVA and corrected for multiple comparison using a Bonferroni post-hoc test. ns: not significant, * p<0.05, *** p<0.001, **** p<0.0001. […] The minimal inhibitory concentration (MIC) was determined following the standard Clinical and Laboratory Standards Institute (CLSI) protocol M27 (Rex JH, and Clinical and Laboratory Standards Institute (2008). Reference method for broth dilution antifungal susceptibility testing of yeasts: approved standard, 3rd ed. National Committee for Clinical Laboratory Standards, Wayne, PA) for yeast strains or the standard CLSI protocol […] […] After incubation, OD490 values were measured using 96-well plate reader and growth capacity was analyzed by setting the corresponding control to 100%. […]

[4] = tested on: S. cerevisiae BY4741; experiment: Clonogenic survival assay (CFU plating); assay type: cell-based, Saccharomyces cerevisiae; conditions: 200 μM 5-MF, day 3 after treatment, untreated control 100%
Procedure: S. cerevisiae BY4741 cells were grown in SMD minimal media to mid-log phase and then treated with the indicated concentrations of 5-MF; control cells were treated with the same amount of solvent (DMSO). (A) Clonogenicity was assayed by plating 500 cells on YPD agar plates and colony forming units (CFUs) were counted to calculate survival rates. (B) Yeast cells were analyzed for cell death markers via AnnV/PI co-staining using flow cytometry. (C) The accumulation of reactive oxygen species was monitored by dihydrotethidium (DHE) to ethidium (Eth) conversion using flow cytometry. Assays in (A-C) were performed on day 3 after treatment. […] Data was analyzed by one-way ANOVA and corrected for multiple comparison using a Bonferroni post-hoc test. ns: not significant, * p<0.05, *** p<0.001, **** p<0.0001. […] Yeast strains were streaked on YPD agar plates and allowed to grow for two days at 28° C. or 30° C., plates were then stored for up to one week at 4° C. […] Survival upon treatment with substances or combinations was analyzed by plating serial dilutions of treated cultures onto YPD agar plates. Plates were incubated for two days at 28° C., colony forming units (CFUs) were counted and survival was calculated compared to the untreated control.

[5] = tested on: C. glabrata BG2 biofilms; experiment: Biofilm inhibition concentration (BIC), XTT staining; assay type: cell-based, Candida glabrata; conditions: Nakaseomyces glabratus, BG2BIOFILMS, C. glabrata BG2 biofilm formation, mean±SEM, read-out: BIC-50
[6] = tested on: C. albicans SC5314; experiment: MIC determination, CLSI protocol M27-A3, OD490; assay type: cell-based, Candida albicans; conditions: C. albicans SC5314, 50 μM 5-MF, untreated control 100%
[7] = tested on: C. glabrata biofilms; experiment: Biofilm inhibition by plating (CFU of biofilm cells); assay type: cell-based, Candida glabrata; conditions: different concentrations of 5-MF

COc1cccc2oc(-c3ccccc3)cc(=O)c12 [5-MF, 5-methoxyflavone]
synergistic antifungal effect with fluconazole [1]: does not show such synergistic effect | IC50 [2]: 216 ± 26.6 µM | MIC50 [3]: 90.6 ± 12.4 µM (≈ 22.9 µg/mL) | yeast survival (clonogenic assay, CFUs) [4]: 31% | IC50 [5]: 224 ± 15.6 µM | growth of planktonic cells compared to untreated cells [6]: about 60% | number of biofilm cells (CFUs on YPD agar) [7]: decreased in a concentration-dependent manner
